# Source: patent US20080206422A1, “Flavour Modulating Substances” (QUEST INTERNATIONAL SERVICES B.V., priority 2004, published 2008)
# Assays:
# [1] = Tasting session of tap water solutions by a professional panel
# Procedure: For a tasting session the following solutions were prepared: • 1) A solution of 0.025% of a composition as prepared in example 1 in tap water; • 2) A solution of 0.025% of a composition as prepared in example 1 and 0.3% NaCl in tap water; • 3) A solution of 0.025% of a composition as prepared in example 1, 0.3% NaCl and 0.03% mono sodium glutamate in tap water; • 4) A solution of 0.005% of a composition as prepared in example 2 in tap water; • 5) A solution of 0.005% of a composition as prepared in example 2 and 0.3% NaCl in tap water; and • 6) A solution of 0.005% of a composition as prepared in example 2, 0.3% NaCl and 0.03% mono sodium glutamate in tap water. • All samples were tasted by a professional panel.
# [2] = Tasting of fish bouillon samples by a professional panel; conditions: sample 5: fish bouillon + 20 ppm of composition of example 2
# Procedure: (§1) Six samples were prepared:
# 2. Fish bouillon+100 ppm of a composition as prepared in example 1;
# 5. Fish bouillon+20 ppm of a composition as prepared in example 2; and
# (§2) All samples were tasted by a professional panel. There was general agreement about the differences in taste between the samples.
# [3] = Tasting of Nam Pla (Thai fish sauce) samples by a professional panel; conditions: sample 6: Nam Pla + 20 ppm of composition of example 2
# Procedure: as §1
# 3. Nam Pla* ex Unilever Thailand;
# 4. Nam Pla ex Unilever Thailand+100 ppm of a composition as prepared in example 1;
# 6. Nam Pla ex Unilever Thailand+20 ppm of a composition as prepared in example 2.
# Nam Pla is a Thai fish sauce produced from a mixture of fish (anchovy), salt and sugar that is fermented for more than 6 months at 30-35° C. Protein hydrolysate and lipid oxidation products are formed through microbiological and enzymatic breakdown of the fish.
# as §2
smiles,measurement,setting,value
"CC(O)C(=O)NCCc1ccc(O)cc1 (stereo not drawn) [example 2, N-lactoyl tyramine]",taste description by professional panel,[1]; solution 4): 0.005% of composition of example 2 in tap water,"a clean mouthfeel, body and thickness"
same,taste description by professional panel,[1]; solution 5): 0.005% of composition of example 2 and 0.3% NaCl in tap water,"a longlasting effect, a clean mouthfeel, body and thickness and as bouillon-like"
same,taste description by professional panel,"[1]; solution 6): 0.005% of composition of example 2, 0.3% NaCl and 0.03% mono sodium glutamate in tap water","a longlasting effect, a strong clean mouthfeel, body and thickness and as strong, natural and complex bouillon-like"
same,difference in taste compared with plain fish bouillon (sample 1),[2],"more body and mouthfeel, a stronger sweet taste impression and a more longlasting effect"
same,difference in taste compared with plain Nam Pla (sample 3),[3],"more body and mouthfeel, a stronger sweet taste impression and a more longlasting effect"
same,fermented fish character and perceived quality compared with plain Nam Pla (sample 3),[3],"a more rounded, natural fermented fish character and was perceived as a higher quality Nam Pla"
